Data from patent US20240241108A1, “LUNG ORGANOID MODEL AND METHOD OF USE” (The Regents of the University of California, priority 2021, published 2024).

Columns and labels:
SARS-COV-2 [1] = test: Pre-clinical drug screen in SARS-COV-2-infected lung organoid monolayers (384-well), viral E gene qPCR readout; type: cell-based; conditions: FIG. 3G; for viral titer (abundance of E gene in the monolayers): pre-treated for 4 hours prior to infection, assessed at 48 hours post-infection, DMSO control
Procedure: Using the E gene as a readout, it was determined whether lung organoid models could be used as platforms for pre-clinical drug screens. The efficacy of nucleoside analog N^4-hydroxycytidine (NHC: EIDD-parent) and its derivative pro-drug. EIDD-2801, were tested. […] Lung organoid monolayers plated in 384-wells were pre-treated for 4 hours with the compounds or DMSO, as a control, prior to infection. The monolayers were assessed at 48 hours post-infection for the abundance of E gene in the monolayers.
Densely packed organoids, collected in PBS/0.5 mM EDTA were centrifuged at 200 rcf for 5 minutes. Organoids were dissociated in 2 mL trypLE Select (Gibco, USA) per 12 wells of organoids at 37 °C for 4-5 minutes and mechanically sheared by pipetting up and down. The TrypLE was inactivated with al-to-5 trypLE to Lung Wash Media ratio. The cells were thereafter centrifuged at 300 g for 4 minutes. The supernatant was aspirated and resuspended in the cell pellet at room temperature using PneumaCult Ex-Plus Mix, with larger clumps of cells being filtered out using […] filter. The viable cells were counted and plated using PneumaCult Ex-Plus media. Cells were either plated 10^5 cells per well in a 96 well plate, or 2×10^4 cells per well in a 384 well Matrigel coated plate. The media was changed after 24 hours of incubation. After 48 hours of plating, the cells were differentiated and appeared flattened. The cells were then infected with MOI of 0.5 with SARS-COV-2. After treatment, the lung monolayers were used for RNA sequencing, immunostaining, and other functional assay.
Lung organoid-derived monolayers or primary airway epithelial cells, either in 384 well plates or in transwells, were washed twice with antibiotic-free lung wash media. […]
Assessment of SARS-COV-2 infectivity test was determined by qPCR using TaqMan assays and TaqMan Universal PCR Master Mix96.97. cDNA was amplified with gene-specific primer/probe set for the E gene and qPCR was performed with the Applied Biosystems QuantStudio 3 Real-Time PCR System. […]

SARS-COV-2 [2] = conditions: cited from earlier work
SARS-COV-2 [3] = conditions: cited from earlier work; remark: listed apart in the source

## CC(C)C(=O)OC[C@H]1O[C@@H](n2ccc(NO)nc2=O)[C@H](O)[C@@H]1O [EIDD-2801]
SARS-COV-2 [1]; pre-treated 4 hours, 48 hours post-infection
  efficacy compared with the parent compound (reduction of viral titer): showed a better efficacy
SARS-COV-2 [1]
  viral titer (abundance of E gene in the monolayers): effectively reduced the viral titer in a dose-dependent manner
SARS-COV-2 [2]
  inhibition of viral replication in vitro: inhibit viral replication
SARS-COV-2 [3]
  inhibition of viral replication in SARS-COV-2-challenged ferrets: inhibit viral replication

## O=c1nc(NO)ccn1[C@@H]1O[C@H](CO)[C@@H](O)[C@H]1O [NHC, N^4-hydroxycytidine]
SARS-COV-2 [1]
  viral titer (abundance of E gene in the monolayers): effectively reduced the viral titer in a dose-dependent manner
SARS-COV-2 [2]
  inhibition of viral replication in vitro: inhibit viral replication
SARS-COV-2 [3]
  inhibition of viral replication in SARS-COV-2-challenged ferrets: inhibit viral replication
